Measured values from patent publication US9273057B2 (Bristol-Myers Squibb Company, priority 2012, dated 2016).

Target: CK2A1 (CK2α/β) (Homo sapiens, UniProt P68400)
Assay: CK2 kinase assay, CK2A1 (CK2α/β)
Assay type: biochemical
Settings: Table A; read-out: CK2A1 (CK2α/β) (IC50)

CK2A1 (CK2α/β), sequence (P68400 whole entry, species assumed): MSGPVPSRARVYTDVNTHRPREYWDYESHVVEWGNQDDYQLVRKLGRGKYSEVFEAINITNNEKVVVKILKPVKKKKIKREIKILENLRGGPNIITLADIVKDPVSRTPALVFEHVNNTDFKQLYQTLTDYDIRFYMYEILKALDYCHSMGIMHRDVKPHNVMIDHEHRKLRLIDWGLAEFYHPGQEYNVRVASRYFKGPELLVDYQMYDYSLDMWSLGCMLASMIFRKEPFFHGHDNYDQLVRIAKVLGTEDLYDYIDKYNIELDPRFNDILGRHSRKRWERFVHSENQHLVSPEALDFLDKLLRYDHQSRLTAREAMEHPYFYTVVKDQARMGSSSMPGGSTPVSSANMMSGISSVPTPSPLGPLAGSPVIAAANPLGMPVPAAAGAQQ
CK2A1 (CK2α/β), sequence (P67870 whole entry partner, species assumed): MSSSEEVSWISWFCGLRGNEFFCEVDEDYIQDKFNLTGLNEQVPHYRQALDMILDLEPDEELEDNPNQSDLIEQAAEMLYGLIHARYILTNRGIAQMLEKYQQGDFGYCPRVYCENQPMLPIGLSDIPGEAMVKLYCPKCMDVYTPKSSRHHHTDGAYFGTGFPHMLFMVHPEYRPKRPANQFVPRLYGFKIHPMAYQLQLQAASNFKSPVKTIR

Compound	IC50 [nM]
N#Cc1cc(Nc2nc(NC3CC3)c3ncc(C#N)n3n2)c(Cl)c(C(O)C(F)(F)F)c1 (racemic) [Example 680, (+/−)-2-((2-chloro-5-cyano-3-(2,2,2-trifluoro-1-hydroxyethyl)phenyl)amino)-4-(cyclopropylamino)imidazo[2,1-f][1,2,4]triazine-7-carbonitrile]	3.73
N#Cc1cc(Nc2nc(NC3CC3)c3ncc(C#N)n3n2)c(Cl)c(C(O)CO)c1 (racemic) [Example 681, (+/−)-2-((2-chloro-5-cyano-3-(1,2-dihydroxyethyl)phenyl)amino)-4-(cyclopropylamino)imidazo[2,1-f][1,2,4]triazine-7-carbonitrile]	0.64
CC(O)(CO)c1cc(C#N)cc(Nc2nc(NC3CC3)c3ncc(C#N)n3n2)c1Cl (racemic) [Example 682, (+/−)-2-((2-chloro-5-cyano-3-(1,2-dihydroxypropan-2-yl)phenyl)amino)-4-(cyclopropylamino)imidazo[2,1-f][1,2,4]triazine-7-carbonitrile]	0.32
CN1CCOC(c2cc(C#N)cc(Nc3nc(NC4CC4)c4ncc(C#N)n4n3)c2Cl)C1 (racemic) [Example 694, (+/−)-2-((2-chloro-5-cyano-3-(4-methylmorpholin-2-yl)phenyl)amino)-4-(cyclopropylamino)imidazo[2,1-f][1,2,4]triazine-7-carbonitrile]	1.48
CC(=O)N1CCOC(c2cc(C#N)cc(Nc3nc(NC4CC4)c4ncc(C#N)n4n3)c2Cl)C1 (racemic) [Example 695, (+/−)-2-((3-(4-acetylmorpholin-2-yl)-2-chloro-5-cyanophenyl)amino)-4-(cyclopropylamino)imidazo[2,1-f][1,2,4]triazine-7-carbonitrile]	3.7
N#Cc1cc(CN2CCNC(C(F)(F)F)C2)c(Cl)c(Nc2nc(NC3CC3)c3ncc(C#N)n3n2)c1 (racemic) [Example 696, (+/−)-2-((2-chloro-5-cyano-3-((3-(trifluoromethyl)piperazin-1-yl)methyl)phenyl)amino)-4-(cyclopropylamino)imidazo[2,1-f][1,2,4]triazine-7-carbonitrile]	1.48
N#Cc1cc(Nc2nc(NC3CC3)c3ncc(C#N)n3n2)c(Cl)c(N2CCOC(CO)C2)c1 (racemic) [Example 697, (+/−)-2-((2-chloro-5-cyano-3-(2-(hydroxymethyl)morpholino)phenyl)amino)-4-(cyclopropylamino)imidazo[2,1-f][1,2,4]triazine-7-carbonitrile]	0.2
CN1CCN(c2cc(C#N)cc(Nc3nc(NC4CC4)c4ncc(C#N)n4n3)c2Cl)CC1CO (racemic) [Example 698, (+/−)-2-({2-chloro-5-cyano-3-[3-(hydroxymethyl)-4-methylpiperazin-1-yl]phenyl}amino)-4-(cyclopropylamino)imidazo[2,1-f][1,2,4]triazine-7-carbonitrile]	1.36
CCNC(=O)OCC1CN(c2cc(C#N)cc(Nc3nc(NC4CC4)c4ncc(C#N)n4n3)c2Cl)CCO1 (racemic) [Example 699, (+/−)-(4-(2-chloro-5-cyano-3-((7-cyano-4-(cyclopropylamino)imidazo[2,1-f][1,2,4]triazin-2-yl)amino)phenyl)morpholin-2-yl)methyl ethylcarbamate]	0.97
CS(=O)(=O)NCC1CN(c2cc(C#N)cc(Nc3nc(NC4CC4)c4ncc(C#N)n4n3)c2Cl)CCO1 (racemic) [Example 700, (+/−)-N-((4-(2-chloro-5-cyano-3-((7-cyano-4-(cyclopropylamino)imidazo[2,1-f][1,2,4]triazin-2-yl)amino)phenyl)morpholin-2-yl)methyl)methanesulfonamide]	0.57
N#Cc1cc(Nc2nc(NC3CC3)c3ncc(C#N)n3n2)c(Cl)c(C2CCCC(N3CCOCC3)C2)c1 (racemic) [Example 725, (+/−) cis and trans-2-((2-chloro-5-cyano-3-(3-morpholinocyclohexyl)phenyl)amino)-4-(cyclopropylamino)imidazo[2,1-f][1,2,4]triazine-7-carbonitrile]	1.39
N#Cc1cc(CCC2CNCCO2)c(Cl)c(Nc2nc(NC3CC3)c3ncc(C#N)n3n2)c1 (racemic) [Example 739, (+/−)-2-((2-chloro-5-cyano-3-(2-(morpholin-2-yl)ethyl)phenyl)amino)-4-(cyclopropylamino) imidazo[2,1-f][1,2,4]triazine-7-carbonitrile]	0.45
CCNc1nc(Nc2cc(C#N)cc(N3CC[C@@H](N4CC(O)C4)[C@H](O)C3)c2Cl)nn2c(C#N)cnc12 (racemic) [Example 776, (+/−)-2-((2-chloro-5-cyano-3-((3R,4R)-3-hydroxy-4-(3-hydroxyazetidin-1-yl)piperidin-1-yl)phenyl)amino)-4-(ethylamino)imidazo[2,1-f][1,2,4]triazine-7-carbonitrile]	1.2
N#Cc1cc(Nc2nc(NC3CC3)c3ncc(C#N)n3n2)c(Cl)c(N2C[C@@H]3CCCN[C@@H]3C2)c1 (racemic) [Example 777, (+/−)-2-((2-chloro-5-cyano-3-((4aS,7aS)-hexahydro-1H-pyrrolo[3,4-b]pyridin-6(2H)-yl)phenyl)amino)-4-(cyclopropylamino)imidazo[2,1-f][1,2,4]triazine-7-carbonitrile]	0.64
CN1CCC2(CCN(c3cc(C#N)cc(Nc4nc(NC5CC5)c5ncc(C#N)n5n4)c3Cl)CC2)C1=O (racemic) [Example 779, (+/−)-2-((2-chloro-5-cyano-3-(2-methyl-1-oxo-2,8-diazaspiro[4.5]decan-8-yl)phenyl)amino)-4-(cyclopropylamino)imidazo[2,1-f][1,2,4]triazine-7-carbonitrile]	0.63
CCNc1nc(Nc2cc(C#N)cc(N3CCC4(CC3)CN(C)C(=O)O4)c2Cl)nn2c(C#N)cnc12 (racemic) [Example 781, (+/−)-2-((2-chloro-5-cyano-3-(3-methyl-2-oxo-1-oxa-3,8-diazaspiro[4.5]decan-8-yl)phenyl)amino)-4-(ethylamino)imidazo[2,1-f][1,2,4]triazine-7-carbonitrile]	0.71
CN1CC2(CCN(c3cc(C#N)cc(Nc4nc(NC5CC5)c5ncc(C#N)n5n4)c3Cl)CC2)CC1=O (racemic) [Example 782, (+/−)-2-((2-chloro-5-cyano-3-(2-methyl-3-oxo-2,8-diazaspiro[4.5]decan-8-yl)phenyl)amino)-4-(cyclopropylamino)imidazo[2,1-f][1,2,4]triazine-7-carbonitrile]	0.58
CCNc1nc(Nc2cc(C#N)cc(N3CCC4(CC3)CC(=O)N(C)C4)c2Cl)nn2c(C#N)cnc12 (racemic) [Example 783, (+/−)-2-((2-chloro-5-cyano-3-(2-methyl-3-oxo-2,8-diazaspiro[4.5]decan-8-yl)phenyl)amino)-4-(ethylamino)imidazo[2,1-f][1,2,4]triazine-7-carbonitrile]	3.76
CCNc1nc(Nc2cc(C#N)cc(N3CCC4(CCN(C)C4=O)CC3)c2Cl)nn2c(C#N)cnc12 (racemic) [Example 784, (+/−)-2-((2-chloro-5-cyano-3-(2-methyl-1-oxo-2,8-diazaspiro[4.5]decan-8-yl)phenyl)amino)-4-(ethylamino)imidazo[2,1-f][1,2,4]triazine-7-carbonitrile]	1.88
CN1C(=O)CNC12CCN(c1cc(C#N)cc(Nc3nc(NC4CC4)c4ncc(C#N)n4n3)c1Cl)CC2 (racemic) [Example 785, (+/−)-2-((2-chloro-5-cyano-3-(1-methyl-2-oxo-1,4,8-triazaspiro[4.5]decan-8-yl)phenyl)amino)-4-(cyclopropylamino)imidazo[2,1-f][1,2,4]triazine-7-carbonitrile]	6.67
N#Cc1cc(Nc2nc(NC3CC3)c3ncc(C#N)n3n2)c(Cl)c(N2CCN3C(CCS3(=O)=O)C2)c1 (racemic) [Example 788, (+/−)-2-((2-chloro-5-cyano-3-(1,1-dioxidotetrahydro-2H-isothiazolo[2,3-a]pyrazin-5 (3H)-yl)phenyl)amino)-4-(cyclopropylamino)imidazo[2,1-f][1,2,4]triazine-7-carbonitrile]	0.62
N#Cc1cc(Nc2nc(NC3CC3)c3ncc(C#N)n3n2)c(Cl)c(N2CCC3(CC2)CN(CC(O)CF)C3)c1 (racemic) [Example 796, (+/−)-2-((2-chloro-5-cyano-3-(2-(3-fluoro-2-hydroxypropyl)-2,7-diazaspiro[3.5]nonan-7-yl)phenyl)amino)-4-(cyclopropylamino)imidazo[2,1-f][1,2,4]triazine-7-carbonitrile]	1.69
CC(O)CN1CC2(CCN(c3cc(C#N)cc(Nc4nc(NC5CC5)c5ncc(C#N)n5n4)c3Cl)CC2)C1 (racemic) [Example 797, (+/−)-2-((2-chloro-5-cyano-3-(2-(2-hydroxypropyl)-2,7-diazaspiro[3.5]nonan-7-yl)phenyl)amino)-4-(cyclopropylamino)imidazo[2,1-f][1,2,4]triazine-7-carbonitrile]	6.61
CC(C(N)=O)N1CC2(CCN(c3cc(C#N)cc(Nc4nc(NC5CC5)c5ncc(C#N)n5n4)c3Cl)CC2)C1 (racemic) [Example 802, (+/−)-2-(7-(2-chloro-5-cyano-3-((7-cyano-4-(cyclopropylamino)imidazo[2,1-f][1,2,4]triazin-2-yl)amino)phenyl)-2,7-diazaspiro[3.5]nonan-2-yl)propanamide]	6.9
N#Cc1cc(Nc2nc(NC3CC3)c3ncc(C#N)n3n2)c(Cl)c(N2CC3(CCN(CC(O)CF)CC3)C2)c1 (racemic) [Example 807, (+/−)-2-((2-chloro-5-cyano-3-(7-(3-fluoro-2-hydroxypropyl)-2,7-diazaspiro[3.5]nonan-2-yl)phenyl)amino)-4-(cyclopropylamino)imidazo[2,1-f][1,2,4]triazine-7-carbonitrile]	0.73
CCNc1nc(Nc2ccc3c(c2)c(C#N)cn3C2CCN(CC(O)CF)CC2)nn2c(C#N)cnc12 (racemic) [Example 824, (+/−)-2-((3-cyano-1-(1-(3-fluoro-2-hydroxypropyl)piperidin-4-yl)-1H-indol-5-yl)amino)-4-(ethylamino)imidazo[2,1-f][1,2,4]triazine-7-carbonitrile]	0.8
